Measurements from patent US4716109A, “Immunoassay” (Boots-Celltech Diagnostics Limited, priority 1983, dated 1987).
Numbered stars: 1 amine (or outer) side, 2 acyl side, 3 side chain; on linkers, the order of the positions; unused ones are H or OH. Square brackets hold non-standard residues; d marks the D form. Peptide text beside a SMILES is read from it. * marks the point of attachment. X3 = CC(=O)[C@H]1CC[C@H]2[C@@H]3CCC4=CC(=O)CC[C@]4(C)[C@H]3[C@H](OCC(=O)*)C[C@]12C; X1 = CC(=O)C1CCC2C3CCC4=CC(=O)CCC4(C)C3C(OC3OC(C(=O)*)C(O)C(O)C3O)CC12C; Sta = CC(C)C[C@H](N)[C@@H](O)CC(=O)O; X2 = CC(C)CC(N[*:1])C(O)CC(=O)[*:2]

What was measured:
[1] = test system: Polyclonal antiserum to progesterone (18/3); format: binding; conditions: radioimmunoassay, polyclonal antiserum 18/3
Excerpt: (§1) Polyclonal antisera to progesterone were obtained from the Milk Marketing Board, Veterinary Laboratories, Cleeve House, Lower Wick, Worcester, England and from Guildhay Antisera, Division of Clinical Biochemistry, Department of Biochemistry, University of Surrey, Guildford, Surrey, England. The antiserum from the Milk Marketing Board had been raised against the immunogen progesterone-11α -hemisuccinyl-bovine serum albumin and the Guildhay antiserum raised against progesterone-11α -hemisuccinyl-ovalbumin.
(§2) A radioimmunoassay employing tritiated progesterone and dextran coated charcoal separation of bound and free progesterone was used to assess the immunoreactivity of progesterone derivatives and progesterone-inhibitor conjugates with the monoclonal and polyclonal antisera, by the method of R. B. Heap, R. J. Holdsworth, J. E. Gadsby, J. A. Laing and D. E. Walters, Brit. Vet. J. 1976, 132, 445-464.

[2] = test system: Monoclonal progesterone antibody 11P12; format: binding; conditions: radioimmunoassay
Excerpt: Monoclonal progesterone antibody was obtained from Dr. Wang of the Imperial Cancer Research Fund Laboratories, Lincolns Inn, London, England. It had been raised against the immunogen progesterone-11 -hemisuccinyl-bovine serum albumin according to the method of V. E. Fantl, D. Y. Wang and R. E. Knyba, J. Steroid Biochem, 1982, 17, 125-130. The monoclonal antibody of choice for use in the specific assay described below is designated 11P12 in the above mentioned publication.
as §2

[3] = target: T1, chymosin milk-clotting activity (Bos taurus, UniProt P00794); assay: Milk-clotting assay in microtiter plates; format: biochemical, calf
T1 construct: purchased Sigma Chemical Co. Ltd., or from recombinant prochymosin (E. coli) supplied by Celltech Ltd; host or cells: calf enzyme, or E. coli for the recombinant prochymosin
Protocol: Milk-clotting assays were carried out in the wells of microtiter plates. In each assay, after a suitable reaction time, the microtiter plate was inverted. Where clotting occurred, the clots remained in the wells of the plate, and where there was no clotting, the contents of the wells were decanted.
The general assay procedure was as follows:
20 μl of assay buffer containing 0.2% bovine serum albumin was pipetted into the wells of a microtiter plate. This was followed by 25 μl of assay buffer alone, or assay buffer containing the desired concentration of progesterone-inhibitor conjugate followed by 25 μl of assay buffer alone, or assay buffer containing the desired concentration of progesterone antibody. Then 30 μl of assay buffer containing the desired concentration of chymosin was added. This was followed by 100 μl of a milk substrate solution. The microtiter plate containing the assay mixture was placed in an incubator at 37° C. for 1 hour. At the end of this time the plate was inverted over a sink and tapped very lightly a few times, and then placed inverted on some tissue paper. The presence of clots was readily observed and either scored on a microtiter plate diagram or alternatively the inverted plate was photocopied against a dark background.
Dilutions of chymosin in assay buffer were prepared at 1/1000, 1/1100, 1/1210, 1/1331, 1/1464, 1/1611, 1/1772, 1/1949. 30 μl of each diluted enzyme solution was used in each microtiter well. A solution of the progesterone-inhibitor designated P4SP2, at a concentration of 40 pmol/ml was prepared; 25 μl (1 pmol) being used in each microtiter well. Dilutions of sheep polyclonal antiserum HPS 53-IIb (supplied by Guildhay Antisera) were prepared at 1/50, 1/100 and 1/200; 25 ul of each dilution being used in each microtiter well.
A 1/50 dilution of antibody to progesterone (HPS53 IIb--Guildhay antisera) was used, together with a fixed concentration of progesterone-inhibitor conjugate P4SP2 (100 pmol/ml). The final concentration of conjugate was 1 pmol/well. Progesterone was dissolved in assay buffer at a concentration of 0.5 nmol/ml, to give a final concentration of 7.5 pmol/well. Incubation mixtures containing 0.571 ml of assay buffer containing 0.2% BSA, 0.714 ml of dilute antibody, 0.429 ml of progesterone in assay buffer and 0.286 ml of inhibitor conjugate were prepared. Control incubates were also prepared in which antibody, progesterone, or both were replaced by equivalent volumes of assay buffer. A similar series of incubation mixtures in which progesterone-inhibitor conjugate was replaced by assay buffer was also prepared. These mixtures were incubated at 4° C. for 2 hours. At the end of the incubation, 70 μl of incubate was transferred to each well in duplicate rows on the microtitre plate. Dilution of a 1 mg/ml solution of chymosin in assay buffer were prepared as follows: 1/1210 1/1331, 1/1464, 1/1611, 1/1772, 1/1949, 1/2144, 1/2358, 1/2594, 1/2835, 1/3138, 1/3452. 30 μl of each dilution was added to each well in a column of the microtitre plates. These dilutions gave a final concentration of 0.71, 0.64, 0.58, 0.53, 0.48, 0.44, 0.40, 0.36, 0.33, 0.30, 0.27 and 0.25 pmol/well. 100 ul of milk substrate was added to each well and the plates were incubated for one hour at 37° C. before checking for clotting. In the absence of progesterone, antibody and progesterone-inhibitor conjugate, the limiting concentration of chymosin necessary for clotting is 0.36 pmol/well. […]

[4] = target: Endothia Parasitica Protease (Cryphonectria parasitica, UniProt P11838); assay: Enzyme inhibition with chromogenic peptide substrate; format: biochemical
Excerpt: Enzyme inhibition data was obtained using synthetic peptide substrates containing a chromophoric nitrophenylalanine residue in the position of the scissile bond so that hydroysis can be followed spectrophotometrically. Hydrolysis was followed at 300 nm and the substrate can be used at any pH value (usually between 2-6) at which the enzyme is active. Kinetic parameters for the hydrolysis of a chromogenic peptide substrate by different types of mammalian aspartic proteinases have been reported J. Kay, M. J. Valler and B. M. Dunn, Naturally-occurring inhibitors of Aspartic Proteinases in Proteinase Inhibitors; N. Katunuma, H. Umezawa and H. Holzer Eds., 1983 Springer-Verlag, Berlin (in press).

Chymosin = target: T2, Chymosin (Bos taurus, UniProt P00794); assay: as above; format: biochemical, calf; conditions: pH 6.0
T2 construct: purchased Sigma Chemical Co. Ltd., or from recombinant prochymosin (E. coli) supplied by Celltech Ltd; host or cells: calf enzyme, or E. coli for the recombinant prochymosin
Excerpt: Enzyme inhibition data was obtained using synthetic peptide substrates containing a chromophoric nitrophenylalanine residue in the position of the scissile bond so that hydroysis can be followed spectrophotometrically. Hydrolysis was followed at 300 nm and the substrate can be used at any pH value (usually between 2-6) at which the enzyme is active.

[5] = test system: Polyclonal antiserum to progesterone HPS 53IIb; assay: Radioimmunoassay for immunoreactivity with polyclonal antiserum HPS 53IIb; format: binding, sheep
Excerpt: as §1, §2
Dilutions of chymosin in assay buffer were prepared at 1/1000, 1/1100, 1/1210, 1/1331, 1/1464, 1/1611, 1/1772, 1/1949. 30 μl of each diluted enzyme solution was used in each microtiter well. A solution of the progesterone-inhibitor designated P4SP2, at a concentration of 40 pmol/ml was prepared; 25 μl (1 pmol) being used in each microtiter well. […]

[6] = test system: Polyclonal antiserum to progesterone HPS 645IIc; assay: Radioimmunoassay for immunoreactivity with polyclonal antiserum HPS 645IIc; format: binding
Excerpt: as §1, §2

[7] = Endothia Parasitica Protease, pH 3.1

Chain of Endothia Parasitica Protease (P11838 90-419): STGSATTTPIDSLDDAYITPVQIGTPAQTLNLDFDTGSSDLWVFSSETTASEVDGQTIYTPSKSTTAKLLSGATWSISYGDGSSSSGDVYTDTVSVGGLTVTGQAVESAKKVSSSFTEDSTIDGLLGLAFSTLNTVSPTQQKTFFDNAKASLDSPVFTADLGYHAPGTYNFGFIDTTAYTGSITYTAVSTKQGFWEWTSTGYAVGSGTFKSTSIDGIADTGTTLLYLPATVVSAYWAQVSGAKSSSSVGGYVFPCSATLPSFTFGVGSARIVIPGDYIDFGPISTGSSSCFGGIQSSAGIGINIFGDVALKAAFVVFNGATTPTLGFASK
T2 sequence (P00794 59-381): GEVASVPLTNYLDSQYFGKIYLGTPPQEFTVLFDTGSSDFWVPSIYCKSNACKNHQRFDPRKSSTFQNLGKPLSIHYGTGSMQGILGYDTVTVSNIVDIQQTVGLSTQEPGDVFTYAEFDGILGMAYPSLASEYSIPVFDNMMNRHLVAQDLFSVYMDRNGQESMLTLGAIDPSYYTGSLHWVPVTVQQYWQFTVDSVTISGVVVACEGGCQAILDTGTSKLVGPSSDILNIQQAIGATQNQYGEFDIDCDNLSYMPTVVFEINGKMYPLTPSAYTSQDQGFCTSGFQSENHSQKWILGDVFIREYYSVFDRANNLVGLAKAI
T1 sequence (P00794 59-381): as above

Compound | Immunoreactivity Polyclonal (18/3) [1] | Immunoreactivity Monoclonal 11P12 [2] | Ki ([4]; Endothia, pH 6.0) | Ki (Chymosin) | further results
CC(=O)[C@H]1CC[C@H]2[C@@H]3CCC4=CC(=O)CC[C@]4(C)[C@H]3[C@H](OC3O[C@H](C(=O)O)[C@@H](O)[C@H](O)[C@H]3O)C[C@]12C (stereo partly drawn) [I, Progesterone11α-glucuronide, reference compound] | 92.1% | 151% | – | – | –
CC(=O)[C@H]1CC[C@H]2[C@@H]3CCC4=CC(=O)CC[C@]4(C)[C@H]3[C@H](OCC(=O)O)C[C@]12C [II, Progesterone11α-carboxymethylether, reference compound] | – | 77.4% | – | – | –
CC(=O)[C@H]1CC[C@H]2[C@@H]3CCC4=CC(=O)CC[C@]4(C)[C@H]3CC[C@]12C [Progesterone, reference compound] | – | – | – | – | limiting concentration of chymosin necessary for clotting ([3]; progesterone alone, 7.5 pmol/well, no conjugate, compared with control 0.36 pmol/well): remains the same
CC[C@H](C)[C@H](NC(=O)[C@H](C)NC(=O)C[C@H](O)[C@H](CC(C)C)NC(=O)[C@H](CO)NC(=O)[C@H](CC(C)C)NC(=O)CO[C@@H]1C[C@]2(C)[C@@H](C(C)=O)CC[C@H]2[C@@H]2CCC3=CC(=O)CC[C@]3(C)[C@H]21)C(=O)N1CCC[C@H]1C(=O)N1CCC[C@H]1C(=O)N[C@@H](CCCCN)C(=O)N[C@@H](CCCCN)C(=O)O [VII] (X3-LS[Sta]AIPPKK-OH) | 33.6% | 17.1% | 26 nM | 6.7 nM | Immunoreactivity Polyclonal (HPS 53IIb) [5]: 42.1%; Immunoreactivity Polyclonal (HPS 645IIc) [6]: 17.4%
CCC(C)C(NC(=O)C(C)NC(=O)CC(O)C(CC(C)C)NC(=O)C(CO)NC(=O)C(CC(C)C)NC(=O)C1OC(OC2CC3(C)C(C(C)=O)CCC3C3CCC4=CC(=O)CCC4(C)C23)C(O)C(O)C1O)C(=O)N1CCCC1C(=O)N1CCCC1C(=O)NC(CCCCN)C(=O)NC(CCCCN)C(=O)O (stereo not shown) [VI] (X1-LS[X2]AIPPKK-OH; configuration not given here) | 16.4% | 3.8% | 470 nM | 20 nM | milk clotting with conjugate in the presence of antibody ([3]; 1 pmol/well conjugate plus 1/50 antibody HPS53 IIb (FIG. 3)): clotting is restored; milk clotting with conjugate in the presence of antibody and free progesterone ([3]; 1 pmol/well conjugate, 1/50 antibody HPS53 IIb, progesterone 7.5 pmol/well (FIG. 3)): antibody restoration of clotting activity was impaired; modulation by antibody of the conjugate's inhibition of chymosin milk clotting activity ([3]; 1 pmol/well conjugate, antiserum HPS 53-IIb at 1/50, 1/100, 1/200, chymosin dilutions 1/1000-1/1949 (FIG. 1)): can be modulated by the addition of antibody; chymosin required to give a visible clot (limiting concentration of chymosin necessary for clotting) ([3]; 1 pmol/well of the inhibitor conjugate, no antibody, no progesterone, 1 h 37° C., control without additions 0.36 pmol/well): 0.44 pmol/well; Immunoreactivity Polyclonal (HPS 53IIb) [5]: 34%
CCC(C)C(NC(=O)C(C)NC(=O)CC(O)C(CC(C)C)NC(=O)C(CO)NC(=O)C(CC(C)C)NC(=O)C(Cc1c[nH]cn1)NC(=O)C1OC(OC2CC3(C)C(C(C)=O)CCC3C3CCC4=CC(=O)CCC4(C)C23)C(O)C(O)C1O)C(=O)N1CCCC1C(=O)N1CCCC1C(=O)NC(CCCCN)C(=O)NC(CCCCN)C(=O)O (stereo not shown) [V] (X1-HLS[X2]AIPPKK-OH; configuration not given here) | 9.5% | 31.8% | 40 nM | 52 nM | –
Achisleuserstualaileproprolyslys [IV] | – | – | – | – | Ki [4, 7]: 6 nM
Hisleuserphestatalaileproprolyslys [III] | – | – | – | – | Ki [4, 7]: 10 nM
